Laboratory results from publication PMC10808981, “Synthesis and structure–activity relationships of aryl fluorosulfate-based inhibitors as novel antitubercular agents” (Bioorganic & Medicinal Chemistry Letters, 2024).
Like-named read-outs stand apart in the source and are kept apart here.

How the values were obtained:
in vitro [1] = conditions: mouse, plasma
[2] = HEK293T cytotoxicity assay (Cell Titer-Glo); assay type: cell-based; conditions: human, HEK293T cells; HEK293T, 3 days
Description: (§1) HEK293T (ATCC) were grown in DMEM (Gibco Cat # 11965-092) supplemented with 10% heat-inactivated FBS, Pen Strep (Gibco) 1X in a 5% CO2 humidified atmosphere at 37◦C. Cells were washed once with DPBS 1X (Gibco), incubated for less than 5 minutes at room temperature in TrypLE solution (Gibco), washed once in propagation medium to remove trypsin, and counted with Trypan Blue. 5 µL of cell suspension ([…]) was dispensed into 1536-well plates containing serial 3-fold drug dilution ranging from 40 µM to 2 nM and incubated for 3 days in a 5% CO2 humidified atmosphere at 37 ◦C. Cell Titer-Glo® Luminescent Cell Viability Assay (Promega) reagent was diluted 1:1 with water and then 2 µL were added to plates. Luminescence was measured in a PHERAStar plate reader (BMG Labtech) and data normalized to negative control (DMSO) minus inhibitor (Puromycin 10 µM). Dose-response curves were fit using the Smart Fit function in Genedata Screener Analyzer (v16.0.8).

HEK293T cells = assay: HEK293T cytotoxicity assay (Cell Titer-Glo); assay type: cell-based
Description: as §1

in vivo = conditions: mouse
in vitro [3] = conditions: mouse, po, 20 mg/kg
in vitro [4] = conditions: human
[5] = mouse
Mtb H37Rv = assay: MIC determination in Mtb H37Rv, Microdilution Alamar Blue Assay (MABA); assay type: cell-based, Mycobacterium tuberculosis; conditions: for MIC: Mycobacterium tuberculosis, H37RV

Compound: CS(=O)(=O)Nc1ncn(-c2cc(F)c(COc3ccc(OS(=O)(=O)F)cc3)c(F)c2)n1 [Compound 21b, 4-((2,6-difluoro-4-(3-(methylsulfonamido)-1H-1,2,4-triazol-1-yl)benzyl)oxy)phenyl sulfurofluoridate]
- fraction unbound (in vitro [1]): 0.008
- CC50 at 3 days [2]: > 40 µM
- cytotoxicity against HEK293T (in words) (HEK293T cells): no cytotoxicity
- Cmax (in vivo; iv, 3 mg/kg): 3310 ng/mL
- bioavailability (in vivo; po, 20 mg/kg): 99.4%
- cytotoxicity against HepG2 (in words) (HepG2 cells): no cytotoxicity
- fraction unbound (in vitro [3]): 0.016
- CC50 (in vitro [4]): > 40 µM
- coverage of plasma and lung levels above the H37Rv MIC ([5]; 20 mg/kg PO, total levels): ~24 h
- unbound levels of plasma and lung coverage over MIC ([5]; 20 mg/kg PO, unbound levels): ~8 h
- AUC0-24 ([5]; IV 3 mg/kg): 7,085 hr*ng/mL
- Cl ([5]; IV 3 mg/kg): 7.05 mL/min/kg
- T1/2 ([5]; IV 3 mg/kg): 3.93 h
- Vd ([5]; IV 3 mg/kg): 2.38 L/kg
- AUC0-24 ([5]; PO 20 mg/kg): 47,615 hr*ng/mL
- T1/2 ([5]; PO 20 mg/kg): 2.57 h
- Tmax ([5]; PO 20 mg/kg): 1.00 h
- Clung at 8 h ([5]; PO 20 mg/kg, lung, 8 h): 1,596 ng/mL
- Clung at 24 h ([5]; PO 20 mg/kg, lung, 24 h): 14.1 ng/mL
- Cplasma at 8 h ([5]; PO 20 mg/kg, plasma, 8 h): 2,120 ng/mL
- Cplasma at 24 h ([5]; PO 20 mg/kg, plasma, 24 h): 22.6 ng/mL
- Cmax ([5]; in vivo, po, 20 mg/kg): 9,290 ng/mL
- H37Rv MIC (Mtb H37Rv; Mtb H37Rv, MABA, 7 days): 0.06 ± 0.019 µM
- MIC (Mtb H37Rv): 0.028 µg/mL
- MIC (Mtb H37Rv; 168 h, Mtb H37Rv, MABA, 7 days): 0.06 µM
